Results from ChEMBL document CHEMBL4706695, “Small molecule approaches to treat autoimmune and inflammatory diseases (Part I): Kinase inhibitors” (Bioorg Med Chem Lett, 2021).

Target: Tyrosine-protein kinase BTK (Homo sapiens, UniProt Q06187)
Assay: Inhibition of BTK (unknown origin) One-hour enzymatic assay without pre-incubation

Tyrosine-protein kinase BTK, sequence (Q06187 whole entry): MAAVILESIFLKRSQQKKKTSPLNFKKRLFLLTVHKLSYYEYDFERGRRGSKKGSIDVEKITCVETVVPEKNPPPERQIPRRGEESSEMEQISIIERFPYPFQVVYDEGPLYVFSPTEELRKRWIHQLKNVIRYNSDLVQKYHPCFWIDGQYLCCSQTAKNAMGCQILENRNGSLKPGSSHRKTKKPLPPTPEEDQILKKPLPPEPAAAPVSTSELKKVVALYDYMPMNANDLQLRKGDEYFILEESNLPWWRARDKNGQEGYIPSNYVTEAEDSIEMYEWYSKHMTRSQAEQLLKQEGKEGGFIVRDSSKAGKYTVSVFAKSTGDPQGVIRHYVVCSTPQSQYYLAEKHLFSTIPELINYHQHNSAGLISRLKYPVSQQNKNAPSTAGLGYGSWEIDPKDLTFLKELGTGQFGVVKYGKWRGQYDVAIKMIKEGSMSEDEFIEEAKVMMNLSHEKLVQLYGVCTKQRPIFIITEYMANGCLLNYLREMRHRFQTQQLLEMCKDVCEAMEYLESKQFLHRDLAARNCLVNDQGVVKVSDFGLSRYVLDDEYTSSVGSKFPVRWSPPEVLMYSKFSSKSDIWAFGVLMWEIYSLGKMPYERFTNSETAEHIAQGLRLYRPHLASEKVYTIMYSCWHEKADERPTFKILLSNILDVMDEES

IC50 [nM] | SMILES
33 | C=CC(=O)N1CCC[C@@H](c2ccc(C(N)=O)c3[nH]ccc23)C1 [ELSUBRUTINIB]
0.5 | N#CN1CCC[C@@H](n2nc(-c3ccc(Oc4ccc(F)cc4F)cc3)c(C(N)=O)c2N)C1
